Data taken from patent EP4640240A1, “PEPTIDE-BASED RADIOPHARMACEUTICALS FOR NON-INVASIVE IMAGING OF THE FUNCTIONAL LIVER RESERVE” (Medizinische Universität Innsbruck, priority 2024, dated 2025).
Where two headings read alike, the source gives them in different places.

Key:
[1] = Protein binding in human serum (MicroSpin G-50 columns); type: in vitro ADME; details: fresh human serum, 37 °C, n=3
Experimental: Protein binding was determined for different time points (2 min, 30 min, 60 min, 120 min) in triplicates using Sephadex MicroSpin G-50 columns (GE-Healthcare, Chicago, Illinois, USA). The columns were spun initially at 20,000 rcf for 1 min to remove the storage buffer. Then approx. 5 MBq of radioligand was added to 1 mL of fresh human serum and incubated at 37 °C. At each given timepoint 25 µL of the mixture was loaded on to the column, which was then spun at 20,000 rcf for 1 min. The activity content on the column (free radioligand) and in the filtrate (protein bound fraction) was quantified in a γ-counter.

[2] = Biodistribution studies in BALB/c mice; type: in vivo; details: for tissue uptake at 10 min / tissue uptake at 0.5 h / tissue uptake at 1 h: female, mouse, iv, total radioactivity, healthy BALB/c mice, 0.1 nmol i.v.; for tissue uptake at 10 min: 10 min p.i.; for tissue uptake at 0.5 h: 30 min p.i.; for tissue uptake at 1 h: 60 min p.i.
Experimental: For biodistribution studies 6-week-old female BALB/c mice (n=3) were injected with 0.1 nmol (100 µL, approx. 1 MBq) of labelled compound via the lateral tail vein and sacrificed after 10, 30, or 60 min by cervical dislocation. The mice were dissected, blood and organs (spleen, pancreas, stomach, intestine, liver, kidney, heart, lung, muscle and bone) were weighed and their activity measured in a γ-counter. For blocking experiments, mice were co-injected with 27.7 µmοl N-acetylgalactose.

[3] = Stability in human blood serum (radio-HPLC); type: in vitro ADME; details: 37 °C
Experimental: Ligand stability in human blood serum (n = 2) and PBS (pH = 6.5) (n = 1) was determined for different time points (2 min, 30 min, 60 min, 120 min). Therefore, approx. 5 MBq of radioligand was added to 1 mL of fresh human serum at 37 °C or PBS at rt. At each given time point 100 µL of the mixture were transferred to a 1.5 mL Eppendorf tube containing 100 µL of acetonitrile. The vial was vortexed and centrifuged for 2 min at 14,000 1/min before 100 µL of the supernatant were diluted with 200 µL of water and injected into analytical radio-HPLC. The PBS solution was directly injected into the radio-HPLC. Ligand stability was determined by integrating the areas of the signals in the radio chromatogram in relation to the signal of the intact ligand.

[4] = Partition coefficient logD (n-octanol/PBS); type: physicochemical; details: n=6
Experimental: For determination of logarithmic partition coefficients (logD) n-Octanol (500 µL) and PBS (500 µL) were pipetted into eight 1.5 mL Protein Low-Bind Eppendorf tubes followed by addition of 300 kBq of labelled compound. The vials were vortexed for 5 min at 1,500 1/min and then centrifuged for 5 min at 20,000 rcf (Eppendorf Centrifuge 5424). Aliquots of 100 µL were taken out of each phase and the amount of activity was quantified in a γ-counter (Perkin Elmer 2480 Wizard2 3"; Waltham, Massachusetts, USA).

[5] = BALB/c mice, comparison with ^99mTc-GSA
[6] = Blood, read-out: Biodistribution data, Blood
[7] = Femur, read-out: Biodistribution data, Femur
[8] = Heart, read-out: Biodistribution data, Heart
[9] = Intestine, read-out: Biodistribution data, Intestine
[10] = Kidneys, read-out: Biodistribution data, Kidneys
[11] = Liver, read-out: Biodistribution data, Liver
[12] = Lung, read-out: Biodistribution data, Lung
[13] = Muscle, read-out: Biodistribution data, Muscle
[14] = Pancreas, read-out: Biodistribution data, Pancreas
[15] = Spleen, read-out: Biodistribution data, Spleen
[16] = Stomach, read-out: Biodistribution data, Stomach

SMILES: NC(=O)CNC(=O)CNC(=O)[C@H](CCCCNC(=O)CCCCc1cn(C2O[C@H](CO)[C@H](O)[C@H](O)[C@H]2O)nn1)NC(=O)CNC(=O)CNC(=O)[C@H](CCCCNC(=O)CCCCc1cn(C2O[C@H](CO)[C@H](O)[C@H](O)[C@H]2O)nn1)NC(=O)CNC(=O)CNC(=O)[C@H](CCCCNC(=O)CCCCc1cn(C2O[C@H](CO)[C@H](O)[C@H](O)[C@H]2O)nn1)NC(=O)CNC(=O)CNC(=O)[C@H](CCCCNC(=O)CCCCc1cn(C2O[C@H](CO)[C@H](O)[C@H](O)[C@H]2O)nn1)NC(=O)CNC(=O)CNC(=O)[C@H](CCCCNC(=O)CCCCc1cn(C2O[C@H](CO)[C@H](O)[C@H](O)[C@H]2O)nn1)NC(=O)CNC(=O)CNC(=O)[C@H](CCCCNC(=O)CCCCc1cn(C2O[C@H](CO)[C@H](O)[C@H](O)[C@H]2O)nn1)NC(=O)CNC(=O)CNC(=O)[C@H](CCCCNC(=O)CCCCc1cn(C2O[C@H](CO)[C@H](O)[C@H](O)[C@H]2O)nn1)NC(=O)CNC(=O)CNC(=O)[C@H](CCCCNC(=O)CCCCc1cn(C2O[C@H](CO)[C@H](O)[C@H](O)[C@H]2O)nn1)NC(=O)CNC(=O)CNC(=O)[C@H](CCCCNC(=O)CCCCc1cn(C2O[C@H](CO)[C@H](O)[C@H](O)[C@H]2O)nn1)NC(=O)CCCNC(=O)CC[C@H](C(=O)O)N1CCN(CC(=O)O)CCN(CC(=O)O)CC1 (some centres unmarked) [[68Ga]Ga-NonaLysan, metal not drawn]
- fraction unbound ([1]; 2 min): 0.847
- fraction unbound ([1]; 30 min): 0.717
- fraction unbound ([1]; 60 min): 0.737
- fraction unbound ([1]; 120 min): 0.785
- activity accumulation in the liver (in words) [2, 5]: outperforms the accumulation in the liver found for the gold standard ^99mTc-GSA
- activity concentration in the intestine (in words) [2, 5]: activity concentration is lower as found for ^99mTc-GSA
- tissue uptake at 10 min [2, 6]: 0.43 ± 0.03 %ID/g
- tissue uptake at 0.5 h [2, 6]: 0.15 ± 0.04 %ID/g
- tissue uptake at 1 h [2, 6]: 0.22 ± 0.05 %ID/g
- tissue uptake at 10 min [2, 7]: 0.26 ± 0.02 %ID/g
- tissue uptake at 0.5 h [2, 7]: 0.26 ± 0.08 %ID/g
- tissue uptake at 1 h [2, 7]: 0.23 ± 0.01 %ID/g
- tissue uptake at 10 min [2, 8]: 0.44 ± 0.04 %ID/g
- tissue uptake at 0.5 h [2, 8]: 0.44 ± 0.04 %ID/g
- tissue uptake at 1 h [2, 8]: 0.52 ± 0.07 %ID/g
- tissue uptake at 10 min [2, 9]: 0.77 ± 0.17 %ID/g
- tissue uptake at 0.5 h [2, 9]: 5.61 ± 0.22 %ID/g
- tissue uptake at 1 h [2, 9]: 7.91 ± 0.49 %ID/g
- tissue uptake at 10 min [2, 10]: 1.16 ± 0.12 %ID/g
- tissue uptake at 0.5 h [2, 10]: 0.83 ± 0.03 %ID/g
- tissue uptake at 1 h [2, 10]: 0.99 ± 0.15 %ID/g
- tissue uptake at 10 min [2, 11]: 71.23 ± 0.43 %ID/g
- tissue uptake at 0.5 h [2, 11]: 79.6 ± 7.96 %ID/g
- tissue uptake at 1 h [2, 11]: 69.6 ± 0.98 %ID/g
- tissue uptake at 10 min [2, 12]: 0.85 ± 0.1 %ID/g
- tissue uptake at 0.5 h [2, 12]: 0.7 ± 0.08 %ID/g
- tissue uptake at 1 h [2, 12]: 0.92 ± 0.1 %ID/g
- tissue uptake at 10 min [2, 13]: 0.61 ± 0.07 %ID/g
- tissue uptake at 0.5 h [2, 13]: 0.66 ± 0.03 %ID/g
- tissue uptake at 1 h [2, 13]: 0.59 ± 0.09 %ID/g
- tissue uptake at 10 min [2, 14]: 0.75 ± 0.07 %ID/g
- tissue uptake at 0.5 h [2, 14]: 0.91 ± 0.05 %ID/g
- tissue uptake at 1 h [2, 14]: 1.16 ± 0.19 %ID/g
- tissue uptake at 10 min [2, 15]: 0.57 ± 0.16 %ID/g
- tissue uptake at 0.5 h [2, 15]: 0.17 ± 0.03 %ID/g
- tissue uptake at 1 h [2, 15]: 0.49 ± 0.03 %ID/g
- tissue uptake at 10 min [2, 16]: 0.73 ± 0.16 %ID/g
- tissue uptake at 0.5 h [2, 16]: 1.15 ± 0.44 %ID/g
- tissue uptake at 1 h [2, 16]: 1.78 ± 0.98 %ID/g
- remaining at 2 min ([3]; 2 min, n=2, read-out: Serum stability (% of intact ligand)): 99.5 ± 0.1%
- remaining at 0.5 h ([3]; 30 min, n=2, read-out: Serum stability (% of intact ligand)): 99.5 ± 0.1%
- Serum stability (% of intact ligand) ([3]; 60 min, n=2): 99.5 ± 0.1%
- remaining at 2 h ([3]; 120 min, n=2, read-out: Serum stability (% of intact ligand)): 99.6%
- logD [4]: -4.06 ± 0.09
